Where “and” joins values, the source holds several entries; their conditions need not be identical. Identical values can stand only once. Entries after “also recorded” stand apart in the source; their conditions may differ. Like-named read-outs stand apart in the source and are kept apart here. Marks after values point to notes of the source that are not given here.
Tests used:
[1] = test system: human breast cancer line MDA-MB-231; assay: Tumor growth inhibition in nude mice xenograft model, MDA-MB-231
Experimental: • 1. […] Drug administration dose were set as: 10 mg/kg, 15 mg/kg, and 20 mk/kg, drug administration volume was 0.2 mL/20 g. • 2. […] MDA [Peptide (P) 0.54 mg/mL (0.001M), Example 10], a colorless and clear liquid, was prepared by the commission, can be directly used after the repackaging in a sterile condition, stored at 4° C. […] Certificate NO. […] SYSK (BeiJing) 2004-0001. Experiment Methods:
The mice were divided into groups and administrated drug after 11 days.
The mice were divided into eight groups, each group had 6-8 mice. The groups contained Negative control. […] After grouping, all mice were administrated with drug by intraperitoneal injection once a day depends on their body weight.
Other groups were administered with drugs for 24 times successively. The experiment was completed 24 h after the last administration.
The mice were sacrificed, and tumors were isolated and their weight was measured, and the inhibition rate of tumor growth by drugs were calculated. […] Calculation methods and formula were omitted.

[2] = test system: Human breast cancer MCF-7; assay: Xenograft tumor nude mice screening, MCF-7; format: in vivo, BALB/c nu mice
Experimental: (§1) Certificate NO. SCXK (BeiJing) 2005-0013. • Cell lines: The tumor cell lines were passaged and cultured by our Lab, some of them was obtained from ATCC. • The tumor cell lines included: Human breast cancer MX-1 and MCF-7. • Human ovarian cancer A2780, and clear Human ovarian cell cancer ES-2, • Human lung cancer H1975 and A549. Experiment Method: • 1. […] The administration dose and treatment progress was determined based from the preliminary experiments, which had solid effects and the shortest treatment period—the dose of 30 mg/kg/day, and the administration duration time of every lot experiment was not more than 12 days.

Human lung cancer H1975 = assay: Xenograft tumor nude mice screening, H1975; format: in vivo, BALB/c nu mice; details: 30 mg/kg × 12, i.p.
Experimental: as §1

Human breast cancer MX-1 = assay: Xenograft tumor nude mice screening, MX-1; format: in vivo, BALB/c nu mice; details: 30 mg/kg i.p., 10~12 times
Experimental: as §1

[3] = test system: Human ovarian cancer A2780; assay: Xenograft tumor nude mice screening, A2780; format: in vivo, BALB/c nu mice; details: 30 mg/kg i.p., 10~12 times
Experimental: as §1

[4] = test system: clear Human ovarian cell cancer ES-2; assay: Xenograft tumor nude mice screening, ES-2; format: in vivo, BALB/c nu mice; details: 30 mg/kg i.p., 10~12 times
Experimental: as §1

[5] = test system: Mice breast cancer cell line (4T1, ATCC CRL2539)
Experimental: Mice breast cancer cell line (4T1, ATCC CRL2539) was a generous gift from Prof. Wei Liang of the Institute of biophysics, Chinese Academy of Sciences. The cell was cultured in the 1640 medium (Gibco) containing 10% fetal bovine serum (FBS), 1% glutamine and 1% penicillin.
4T1 cells in logarithmic phase were collected and the concentration was adjusted to 2×10^6/mL. 4T1 tumors were introduced in female BALB/c mice by injecting subcutaneously into the fourth fat pad area of the right abdominal mammary gland with the dose of 2×10^5/0.1 mL. […] From the 9th day after implantation, tumor growth was measured every 2 days with vernier calipers for determining the long diameter and short diameter of tumor. Tumor volume was calculated by the formula (½)×long diameter×short diameter^2. Drug was withdrawn on the twenty-eight days after the implantation, all mice were then sacrificed and the body weight were measured. The tumors, spleen and lung were removed and weighed. The lungs were fixed in Bouin's fixative for 24 h. The numbers of lung metastasis nodule were counted, the statistics was evaluated using Mann-Whitney U test.

lewis lung cancer = assay: Anti-artificial metastasis on Lewis lung cancer in mice (intravenous inoculation); format: in vivo, C57Bl/6 mice
Experimental: The suspension (0.2 mL/mice, 3×10^5 tumor cell) was inoculated intravenously into the tails of fifty C57Bl/6 mice. […] The tumors, spleen and lung were removed and weighed.

[6] = Toxicity test by single dose, intravenous; format: in vivo, ICR mice
[7] = 30 mg/kg × 12, i.p. once a day, then withdrawn, larger starting tumors
[8] = 112.5 mg·kg^−1 i.v. single dose

## CC(=O)O[C@H]1C(=O)[C@@]2(C)[C@H]([C@H](OC(=O)c3ccccc3)[C@]3(O)C[C@H](OC(=O)[C@H](OC(=O)CCC(=O)NCCCCC(NC(=O)CC[C@H](NC(=O)C(C)NC(=O)/C=C/c4ccc(Cl)cc4)C(N)=O)C(N)=O)[C@@H](NC(=O)c4ccccc4)c4ccccc4)C(C)=C1C3(C)C)[C@]1(OC(C)=O)CO[C@@H]1C[C@@H]2O (stereo partly drawn) [MTC-220]
[1]; 10 mg/kg × 24, i.p. once a day
  Body weight Beginning: 17.4 ± 1.47 g
  Body weight End: 20.6 ± 1.64 g
  RTV: 12.62 ± 5.924
  T/C: 70.0%
  TGI: 37.3%
  Tumor volume Beginning: 135 ± 70.6 mm^3
  Tumor volume End: 1655 ± 929.4 mm^3
  Tumor weight: 1.78 ± 1.016 g
[1]; 15 mg/kg × 24, end of the experiment
  Body weight increase compared to the beginning of the grouping: 2.7 g
[1]; 15 mg/kg × 24, i.p. once a day
  Body weight Beginning: 17.9 ± 0.88 g
  Body weight End: 20.6 ± 0.91 g
  RTV: 7.12 ± 4.064
  T/C: 39.5% and 37.5% and 39.49%
  TGI: 57.4%
  Tumor volume Beginning: 148 ± 80.5 mm^3
  Tumor volume End: 967 ± 590.4 mm^3
  Tumor weight: 1.21 ± 0.813 g
[1]; 20 mg/kg × 24, end of the experiment
  Body weight increase compared to the beginning of the grouping: 1.9 g
[1]; 20 mg/kg × 24, i.p. once a day
  Body weight Beginning: 17.0 ± 1.11 g
  Body weight End: 18.9 ± 1.58 g
  RTV: 4.58 ± 2.456
  T/C: 25.40%
  TGI: 72.2%
  Tumor volume Beginning: 133 ± 57.6 mm^3
  Tumor volume End: 642 ± 482.3 mm^3
  Tumor weight: 0.79 ± 0.654 g
[1]; 30 mg/kg × 12, end of the experiment
  Body weight increase compared to the beginning of the grouping: 2.6 g
[1]; [7]
  Body weight Beginning: 17.5 ± 1.09 g
  Body weight End: 20.1 ± 0.98 g
  RTV: 1.11 ± 1.366
  T/C: 6.16%
  TGI: >87.0%
  Tumor volume Beginning: 340 ± 58.4 mm^3
  Tumor volume End: 391 ± 480.5 mm^3
  Tumor weight: 0.37 ± 0.413 g
[2]; 30 mg/kg × 12, i.p.
  Body weight Beginning: 20.8 ± 1.14 g
  Body weight End: 23.3 ± 1.22 g
  RTV: 0**
  T/C: 0%
  TGI: 100%
  Tumor volume Beginning: 142 ± 73.5 mm^3
  Tumor volume End: 0 mm^3
  Tumor weight: 0** g
[2]; 30 mg/kg/day, 10 administrations, then withdrawal
  Tumor observation (in words): disappeared one after another; also recorded: disappeared after successive administration for 10 times
Human lung cancer H1975
  Body weight Beginning: 24.1 ± 1.20 g
  Body weight End: 26.6 ± 0.76 g
  RTV: 0.66 ± 0.464
  Tumor volume Beginning: 135 ± 50.6 mm^3
  Tumor volume End: 127 ± 106.1 mm^3
  Tumor weight: 0.13 ± 0.103 g
Human breast cancer MX-1
  Inhibition of tumor growth (in words): weak
[3]
  Inhibition of tumor growth (in words): at certain degree, but didn't attain the valid standard
[4]
  Inhibition of tumor growth (in words): at certain degree, but didn't attain the valid standard
[5]; 2.5 mg/kg i.p. once daily
  Lung weight: 153 ± 18 mg
[5]; 5.0 mg/kg i.p. once daily
  Lung weight: 160 ± 15 mg
[5]; 2.5, 5, 10 mg/kg i.p. once daily
  Toxic and side effects: no toxic and side effects
[5]; 2.5, 5, 10 mg/kg, p<0.01, dose dependent
  Lung metastasis nodule numbers compared to vehicle control (in words): significantly decreased
Lewis lung cancer; 2.5 mg/kg i.p.
  Body weight: 19.0 ± 1.9 g
  Lung weight: 334 ± 217 mg
Lewis lung cancer; 5 mg/kg i.p.
  Body weight: 18.4 ± 2.3 g
  Lung weight: 492 ± 353 mg
Lewis lung cancer; 10 mg/kg i.p.
  Lung weight: 393 ± 326 mg
Lewis lung cancer; 2.5, 5, 10 mg/kg, dose dependent
  Lung metastasis nodule number compared to vehicle control (in words): significantly decreased
[6]; [8]
  Anatomical examination of organs: no sign of abnormal changes
  Body weight compared with control group: not significantly different
  Symptoms after injection: voluntary activities of mice in administered group were reduced, some mice showed jumping symptoms
  Time to recovery from symptoms: about 10 min
[6]; 112.5 mg·kg^−1 i.v. single dose, 14 days observation
  Death: no death occured
[6]; mouse, in vivo, 112.5 mg·kg^−1, single intravenous injection, ICR mice
  MTD at 14 days: > 112 mg/kg
